According to PubChem BioAssay AID330 (DTP/NCI, 2004):
Where “and” joins values, the source holds several entries; their conditions need not be identical. Equal entries are not always repeated. Toxic doses and inconclusive results are not listed. Rule for the calls: active = survival T/C of 150% or more; inactive = T/C below 125% in these data.

System: P388 leukemia ip, CD2F1 mice, survival T/C
Experiment: NCI In Vivo Anticancer Drug Screen. Data for tumor model P388 Leukemia (intraperitoneal) in CD2F1 (CDF1) mice
Settings: endpoint: median survival time, higher = longer survival
Summary of the method: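 Mice carrying the transplanted tumor received test compound or vehicle. Survival was recorded in each group, and the value is the treated-group measurement divided by that of the vehicle-treated control group.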

[1] = dose: 50.0 mg/kg/injection, schedule: Q01DX009 (ip), vehicle: saline with Tween-80
[2] = dose: 100.0 mg/kg/injection, schedule: Q01DX009 (ip), vehicle: saline with Tween-80
[3] = dose: 50.0 mg/kg/injection, schedule: Q01DX005 (ip), vehicle: saline with Tween-80
[4] = dose: 100.0 mg/kg/injection, schedule: Q01DX005 (ip), vehicle: saline with Tween-80
[5] = dose: 200.0 mg/kg/injection, schedule: Q01DX005 (ip), vehicle: saline with Tween-80
[6] = dose: 200.0 mg/kg/injection, schedule: Q01DX009 (ip), vehicle: saline with Tween-80
[7] = dose: 25.0 mg/kg/injection, schedule: Q01DX009 (ip), vehicle: saline
[8] = dose: 50.0 mg/kg/injection, schedule: Q01DX009 (ip), vehicle: saline
[9] = dose: 12.5 mg/kg/injection, schedule: Q01DX009 (ip), vehicle: saline with Tween-80
[10] = dose: 25.0 mg/kg/injection, schedule: Q01DX009 (ip), vehicle: saline with Tween-80

Measured: T/C

Cc1ccc(C(=Nc2ccccc2)c2ccccc2C)cc1
inactive: dose: 50.0 mg/kg/injection, schedule: Q04DX002 (ip), vehicle: saline with Tween-80 91 % of control and 95 % of control | dose: 100.0 mg/kg/injection, schedule: Q04DX002 (ip), vehicle: saline with Tween-80 104 % of control and 86 % of control | dose: 200.0 mg/kg/injection, schedule: Q04DX002 (ip), vehicle: saline with Tween-80 87 % of control and 93 % of control | dose: 400.0 mg/kg/injection, schedule: Q04DX002 (ip), vehicle: saline with Tween-80 86 % of control and 95 % of control

C=CCC(CC1CC2CCCCN2O1)OCc1ccccc1 (centres undefined)
inactive: dose: 100.0 mg/kg/injection, schedule: Q04DX003 (ip), vehicle: saline with Tween-80 101 % of control | dose: 200.0 mg/kg/injection, schedule: Q04DX003 (ip), vehicle: saline with Tween-80 105 % of control | dose: 400.0 mg/kg/injection, schedule: Q04DX003 (ip), vehicle: saline with Tween-80 104 % of control

COCC/C=C\CN(C(C)C)C(C)C
inactive: [1] 99 % of control | [2] 101 % of control

CSc1nc(N)c2cnn(C3OC(CO)C(O)C3O)c2n1 (centres undefined)
inactive: [3] 100 % of control | [4] 109 % of control | [5] 100 % of control

NC(=O)n1ncnc1N
inactive: dose: 50.0 mg/kg/injection, schedule: Q01DX005 (ip), vehicle: saline 95 % of control | [1] 107 % of control | dose: 100.0 mg/kg/injection, schedule: Q01DX005 (ip), vehicle: saline 100 % of control | [2] 102 % of control | dose: 200.0 mg/kg/injection, schedule: Q01DX005 (ip), vehicle: saline 102 % of control | [6] 100 % of control | dose: 400.0 mg/kg/injection, schedule: Q01DX009 (ip), vehicle: saline with Tween-80 117 % of control

CCc1cccc(CC)c1-n1nnc(C(=O)c2ccccc2)c1C(=O)OC
inactive: dose: 60.0 mg/kg/injection, schedule: Q01DX005 (ip), vehicle: Klucel + Tween-80 100 % of control | dose: 120.0 mg/kg/injection, schedule: Q01DX005 (ip), vehicle: Klucel + Tween-80 109 % of control | dose: 240.0 mg/kg/injection, schedule: Q01DX005 (ip), vehicle: Klucel + Tween-80 102 % of control

CC(=O)CS(C)(=O)=O
inactive: [7] 103 % of control | [8] 102 % of control | dose: 100.0 mg/kg/injection, schedule: Q01DX009 (ip), vehicle: saline 101 % of control | dose: 200.0 mg/kg/injection, schedule: Q01DX009 (ip), vehicle: saline 98 % of control

CCc1nc(N)nc(N)c1-c1ccc(N2CCCCC2)c([N+](=O)[O-])c1
inactive: dose: 3.13 mg/kg/injection, schedule: Q01DX009 (ip), vehicle: distilled water + Tween-80 104 % of control | dose: 6.25 mg/kg/injection, schedule: Q01DX009 (ip), vehicle: distilled water + Tween-80 99 % of control | dose: 12.5 mg/kg/injection, schedule: Q01DX009 (ip), vehicle: distilled water + Tween-80 95 % of control | dose: 25.0 mg/kg/injection, schedule: Q01DX009 (ip), vehicle: distilled water + Tween-80 95 % of control | dose: 50.0 mg/kg/injection, schedule: Q01DX009 (ip), vehicle: distilled water + Tween-80 99 % of control and 90 % of control and 92 % of control | dose: 100.0 mg/kg/injection, schedule: Q01DX009 (ip), vehicle: distilled water + Tween-80 107 % of control and 86 % of control | dose: 200.0 mg/kg/injection, schedule: Q01DX009 (ip), vehicle: distilled water + Tween-80 90 % of control

Cc1cc(=O)[nH]c2c1CCCC2
inactive: dose: 100.0 mg/kg/injection, schedule: Q04DX003 (ip), vehicle: saline sonified 107 % of control | dose: 200.0 mg/kg/injection, schedule: Q04DX003 (ip), vehicle: saline sonified 96 % of control | dose: 400.0 mg/kg/injection, schedule: Q04DX003 (ip), vehicle: saline sonified 92 % of control

O=C(Nc1ccccc1)Nc1nnnc2ccccc12
inactive: dose: 100.0 mg/kg/injection, schedule: Q01DX001 (ip), vehicle: saline with Tween-80 100 % of control | dose: 200.0 mg/kg/injection, schedule: Q01DX001 (ip), vehicle: saline with Tween-80 95 % of control | dose: 400.0 mg/kg/injection, schedule: Q01DX001 (ip), vehicle: saline with Tween-80 90 % of control

CCOC(=O)C(N=Nc1ccc(C)cc1Br)C(C)=O (centres undefined)
inactive: [3] 102 % of control | [4] 93 % of control | [5] 93 % of control

CCn1c2nc(=O)n(C)c(=O)c-2cc2cc(C)ccc21
inactive: [9] 92 % of control | [10] 101 % of control | [1] 109 % of control

Cc1ccc(N=S(C)C)cc1
inactive: dose: 100.0 mg/kg/injection, schedule: Q04DX002 (ip), vehicle: Klucel (hydroxypropylcellulose) (HPC) 100 % of control | dose: 200.0 mg/kg/injection, schedule: Q04DX002 (ip), vehicle: Klucel (hydroxypropylcellulose) (HPC) 101 % of control | dose: 400.0 mg/kg/injection, schedule: Q04DX002 (ip), vehicle: Klucel (hydroxypropylcellulose) (HPC) 113 % of control

O=C(/C=C/c1ccc(O)cc1)NCCc1c[nH]c2ccc(O)cc12
inactive: dose: 25.0 mg/kg/injection, schedule: Q01DX005 (ip), vehicle: Klucel + Tween-80 106 % of control | dose: 50.0 mg/kg/injection, schedule: Q01DX005 (ip), vehicle: Klucel + Tween-80 97 % of control | dose: 100.0 mg/kg/injection, schedule: Q01DX005 (ip), vehicle: Klucel + Tween-80 92 % of control | dose: 200.0 mg/kg/injection, schedule: Q01DX005 (ip), vehicle: Klucel + Tween-80 95 % of control

C1CCC(N2CCOCC2)CC1
inactive: dose: 12.5 mg/kg/injection, schedule: Q01DX009 (ip), vehicle: saline 99 % of control | [7] 117 % of control | [8] 100 % of control and 101 % of control

O=C(c1nc2ccccc2[nH]1)N1CCN(c2ccccc2)CC1
inactive: dose: 50.0 mg/kg/injection, schedule: Q01DX005 (ip), vehicle: Klucel (hydroxypropylcellulose) (HPC) 104 % of control | dose: 100.0 mg/kg/injection, schedule: Q01DX005 (ip), vehicle: Klucel (hydroxypropylcellulose) (HPC) 107 % of control and 95 % of control | dose: 200.0 mg/kg/injection, schedule: Q01DX005 (ip), vehicle: Klucel (hydroxypropylcellulose) (HPC) 101 % of control and 110 % of control

COc1cccc2c1C(=O)c1c(O)c3c(c(O)c1C2=O)C[C@@](O)(/C(CO)=N/NC(=O)c1ccccc1)C[C@@H]3OC1CC(N)C(O)C(C)O1 (some centres undefined)
active: dose: 0.5 mg/kg/injection, schedule: Q01DX009 (ip), vehicle: water 150 % of control | dose: 1.0 mg/kg/injection, schedule: Q01DX009 (ip), vehicle: water 154 % of control and 169 % of control | dose: 2.0 mg/kg/injection, schedule: Q01DX009 (ip), vehicle: water 154 % of control and 171 % of control and 190 % of control | dose: 4.0 mg/kg/injection, schedule: Q01DX009 (ip), vehicle: water 172 % of control and 180 % of control and 212 % of control | dose: 8.0 mg/kg/injection, schedule: Q01DX009 (ip), vehicle: water 201 % of control and 230 % of control and 390 % of control | dose: 8.6 mg/kg/injection, schedule: Q01DX009 (ip), vehicle: saline 163 % of control | dose: 10.8 mg/kg/injection, schedule: Q01DX009 (ip), vehicle: saline 187 % of control
inactive: dose: 0.12 mg/kg/injection, schedule: Q01DX009 (ip), vehicle: water 103 % of control | dose: 0.25 mg/kg/injection, schedule: Q01DX009 (ip), vehicle: water 99 % of control | dose: 0.8 mg/kg/injection, schedule: Q01DX009 (ip), vehicle: saline 112 % of control | dose: 1.4 mg/kg/injection, schedule: Q01DX009 (ip), vehicle: saline 112 % of control | dose: 2.3 mg/kg/injection, schedule: Q01DX009 (ip), vehicle: saline 113 % of control | dose: 3.9 mg/kg/injection, schedule: Q01DX009 (ip), vehicle: saline 118 % of control | dose: 6.0 mg/kg/injection, schedule: Q04DX003 (ip), vehicle: water 96 % of control | dose: 18.0 mg/kg/injection, schedule: Q01DX009 (ip), vehicle: saline 90 % of control | dose: 96.0 mg/kg/injection, schedule: Q04DX003 (ip), vehicle: water 114 % of control

NC(=S)N/N=C/c1ccc(OC(=O)COc2ccc(Cl)cc2)cn1
inactive: dose: 3.12 mg/kg/injection, schedule: Q01DX009 (ip), vehicle: saline with Tween-80 118 % of control | [6] 86 % of control
active: dose: 6.25 mg/kg/injection, schedule: Q01DX009 (ip), vehicle: saline with Tween-80 159 % of control | [9] 156 % of control and 157 % of control | [10] 184 % of control | [1] 188 % of control and 189 % of control
225 % of control and 88 % of control: [2]

Cc1cc(-c2ccccc2)nc2nc3ccccc3n12
inactive: dose: 60.0 mg/kg/injection, schedule: Q01DX005 (ip), vehicle: saline with Tween-80 105 % of control | dose: 120.0 mg/kg/injection, schedule: Q01DX005 (ip), vehicle: saline with Tween-80 103 % of control | dose: 240.0 mg/kg/injection, schedule: Q01DX005 (ip), vehicle: saline with Tween-80 103 % of control
